Data set [1] has as its target Gonadotropin-releasing hormone receptor (Rattus norvegicus) (UniProt P30969). Kind of data set: Antagonist activity at LH-RH receptor in rat pituitary gland assessed as inhibition of LH-RH-induced luteinizing hormone release.
Data set [2] shares this target. Nature of the data set: Antagonist activity at LH-RH receptor in rat pituitary gland assessed as inhibition of LH-RH-induced FSH release.
Data set [3] has the same target. Nature of the data set: Antagonist activity at LH-RH receptor in rat pituitary gland assessed as inhibition of LH-RH-induced FSH release by measuring change in FSH level in medium at 100000 ng/ml.
Data set [4] in a line: Retardation factor of the compound using 2-propanol-1N AcOH at ratio of 2:1 as solvent system by thin layer chromatography. It is filed as physicochemical.
Data set [5] in a line: Retardation factor of the compound using EtOAc-pyridine-AcOH-H2O at ratio of 5:5:1:3 as solvent system by thin layer chromatography. Type of data set: physicochemical.
Data set [6] deals with Gonadotropin-releasing hormone receptor (Rattus norvegicus) (UniProt P30969). Nature of the data set: Agonist activity at LH-RH receptor in rat pituitary gland assessed as change in luteinizing hormone secretion at 100000 ng/ml.
Chain of Gonadotropin-releasing hormone receptor (Rattus norvegicus) (P30969 whole entry, looked up): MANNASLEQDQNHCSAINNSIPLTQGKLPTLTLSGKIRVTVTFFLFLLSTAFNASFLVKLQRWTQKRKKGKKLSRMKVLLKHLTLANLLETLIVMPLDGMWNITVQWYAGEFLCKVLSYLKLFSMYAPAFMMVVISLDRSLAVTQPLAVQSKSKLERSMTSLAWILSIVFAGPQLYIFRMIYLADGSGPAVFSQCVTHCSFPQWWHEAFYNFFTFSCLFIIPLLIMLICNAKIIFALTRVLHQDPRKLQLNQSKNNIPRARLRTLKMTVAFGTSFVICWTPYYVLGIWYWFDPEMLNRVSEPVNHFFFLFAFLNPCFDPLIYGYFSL
A short description of data set [7]: Retardation factor of the compound using 1-BuOH-AcOH-EtOAc-H2O at ratio of 1:1:1:1 as solvent system by thin layer chromatography. It is filed as physicochemical.
Data set [8] is described as follows: Retardation factor of the compound using CHCl3-MeOH-concentrated NH4OH as solvent system by thin layer chromatography. It is filed as physicochemical.
Data set [9] deals with Gonadotropin-releasing hormone receptor (Rattus norvegicus) (UniProt P30969). Nature of the data set: Antagonist activity at LH-RH receptor in rat pituitary gland assessed as inhibition of LH-RH-induced luteinizing hormone release by measuring change in LH level in medium at 100000 ng/ml.
The target is the same in data set [10]. Nature of the data set: Antagonist activity at LH-RH receptor in rat pituitary gland assessed as inhibition of LH-RH-induced luteinizing hormone release by measuring change in LH level in medium at 10000 ng/ml.
The target is the same in data set [11]. Nature of the data set: Agonist activity at LH-RH receptor in rat pituitary gland assessed as change in FSH secretion at 100000 ng/ml.
Data set [12] has the same target. Kind of data set: Antagonist activity at LH-RH receptor in rat pituitary gland assessed as inhibition of LH-RH-induced FSH release by measuring change in FSH level in medium at 10000 ng/ml.
Data set [13] in a line: Retardation factor of the compound using EtOH-H2O at ratio of 7:3 as solvent system by thin layer chromatography. It is filed as physicochemical.
In data set [14] the test system is Rattus norvegicus. Kind of data set: Induction of FSH release in immature rat administered as infusion relative to LH-RH. It is filed as functional.
Data set [15] concerns Rattus norvegicus. Nature of the data set: Induction of LH release in immature rat administered as infusion relative to LH-RH. Type of data set: functional.
The target of data set [16] is Gonadotropin-releasing hormone receptor (Rattus norvegicus) (UniProt P30969). Nature of the data set: Antagonist activity at LH-RH receptor in rat pituitary gland assessed as inhibition of LH-RH-induced luteinizing hormone release by measuring change in LH level in medium at 1000 ng/ml.
For data set [17] the target is unchanged. Kind of data set: Antagonist activity at LH-RH receptor in rat pituitary gland assessed as inhibition of LH-RH-induced FSH release by measuring change in FSH level in medium at 1000 ng/ml.
Data set [18] can be described thus: Retardation factor of the compound using 1-BuOH-pyridine-AcOH-H2O at ratio of 30:20:6:24 as solvent system by thin layer chromatography. Type of data set: physicochemical.
Data set [19] concerns Gonadotropin-releasing hormone receptor. Nature of the data set: Agonist activity at LH-RH receptor (unknown origin) relative to LH-RH.

Square brackets hold non-standard residues; d marks the D form. Peptide text beside a SMILES is read from it. pGlu = O=C1CC[C@@H](C(=O)O)N1

On to `CC(C)C[C@H](NC(=O)CNC(=O)[C@H](Cc1ccc(O)cc1)NC(=O)[C@H](CO)NC(=O)[C@H](Cc1c[nH]c2ccccc12)NC(=O)[C@@H]1CCC(=O)N1)C(=O)N[C@@H](CCCNC(=N)N)C(=O)N1CCC[C@H]1C(=O)NCC(N)=O` ([pGlu]WSYGLRPG-NH2), for which the MED in [1] and in data set [2] was 30 µg/mL throughout.
Turning to `CC(C)C[C@H](NC(=O)[C@@H](C)NC(=O)[C@H](Cc1ccc(O)cc1)NC(=O)[C@H](CO)NC(=O)[C@@H](NC(=O)[C@@H](NC(=O)[C@@H]1CCC(=O)N1)C(C)C)C(C)C)C(=O)N[C@@H](CCCNC(=N)N)C(=O)N1CCC[C@H]1C(=O)NCC(N)=O`, the Activity in data set [3] worked out at 770 ng/mL; in data set [6] it was 17 ng/mL; in [9] it was 35 ng/mL; in data set [10], 313 ng/mL; in data set [11], 850 ng/mL; in data set [12], 4810 ng/mL. Further, the Rf in data set [4] is recorded as 0.54; in data set [5], 0.7; in data set [7], 0.64; in data set [8] it was 0.53; in data set [13], 0.62. Further, the MED in [1] and in data set [2] was 100 µg/mL in each case.
Turning to `CCNC(=O)[C@@H]1CCCN1C(=O)[C@H](CCCNC(=N)N)NC(=O)[C@H](CC(C)C)NC(=O)[C@@H](C)NC(=O)[C@H](Cc1ccc(O)cc1)NC(=O)[C@H](CO)NC(=O)[C@H](Cc1c[nH]c2ccccc12)NC(=O)[C@H](Cc1cnc[nH]1)NC(=O)[C@@H]1CCC(=O)N1`, the Activity with Rattus norvegicus [14] is 1200%; in the data set on Rattus norvegicus [15], 1600%.
On to `CC(C)C[C@H](NC(=O)[C@@H](NC(=O)[C@@H]1CCC(=O)N1)C(C)C)C(=O)N[C@@H](CO)C(=O)N[C@@H](Cc1ccc(O)cc1)C(=O)N[C@H](C)C(=O)N[C@@H](CC(C)C)C(=O)N[C@@H](CCCNC(=N)N)C(=O)N1CCC[C@H]1C(=O)NCC(N)=O`, for which the Rf was 0.58 in [4]; 0.71 in data set [5]; 0.66 in data set [7]; 0.58 in data set [8]; 0.62 in data set [13]. The MED in data set [1] and in data set [2] was 10 µg/mL each time. Further, the Activity in [6] is -9 ng/mL; in data set [16], 246 ng/mL; in [17] it was 6170 ng/mL; in data set [10] it was 28 ng/mL; in data set [11], 158 ng/mL; in [12], 1260 ng/mL.
Regarding `CC(C)C[C@H](NC(=O)[C@@H]1CCC(=O)N1)C(=O)N[C@@H](CC(C)C)C(=O)N[C@@H](CO)C(=O)N[C@@H](Cc1ccc(O)cc1)C(=O)N[C@H](C)C(=O)N[C@@H](CC(C)C)C(=O)N[C@@H](CCCNC(=N)N)C(=O)N1CCC[C@H]1C(=O)NCC(N)=O`, the Rf came out at 0.67 in [4]; 0.8 in data set [5]; 0.69 in data set [7]; 0.59 in data set [18]; 0.63 in [13]. In addition, the MED in data set [1] and in data set [2] was 10 µg/mL in each case. Also, the Activity in [6] is 26 ng/mL; in data set [16], 460 ng/mL; in data set [17] it was 9280 ng/mL; in [10], 3 ng/mL; in data set [11], 1690 ng/mL; in [12], 2700 ng/mL.
In the case of `CC(C)C[C@H](NC(=O)[C@@H]1CCC(=O)N1)C(=O)N[C@H](C(=O)N[C@@H](CO)C(=O)N[C@@H](Cc1ccc(O)cc1)C(=O)N[C@H](C)C(=O)N[C@@H](CC(C)C)C(=O)N[C@@H](CCCNC(=N)N)C(=O)N1CCC[C@H]1C(=O)NCC(N)=O)C(C)C`, the Activity in data set [3] is -399 ng/mL; in data set [6], -37 ng/mL; in data set [9], 13 ng/mL; in data set [10] it was 150 ng/mL; in data set [11], -185 ng/mL; in data set [12] it was 3770 ng/mL. The Rf in data set [4] worked out at 0.57; in [5], 0.71; in data set [7], 0.66; in data set [8], 0.58; in data set [13] it was 0.62. Besides, the MED in data set [1] and in [2] was 100 µg/mL in each case.
Take `CC(C)C[C@H](NC(=O)[C@@H](C)NC(=O)[C@H](Cc1ccc(O)cc1)NC(=O)[C@H](CO)NC(=O)[C@H](Cc1c[nH]c2ccccc12)NC(=O)[C@H](Cc1cnc[nH]1)NC(=O)[C@@H]1CCC(=O)N1)C(=O)N[C@@H](CCCNC(=N)N)C(=O)N1CCC[C@H]1C(=O)NCC(N)=O`: the Activity in [19] is 300%.
Take `CC(C)C[C@H](NC(=O)CNC(=O)[C@H](Cc1ccc(O)cc1)NC(=O)[C@H](CO)NC(=O)[C@H](CC(C)C)NC(=O)[C@H](CC(C)C)NC(=O)[C@@H]1CCC(=O)N1)C(=O)N[C@@H](CCCNC(=N)N)C(=O)N1CCC[C@H]1C(=O)NCC(N)=O` ([pGlu]LLSYGLRPG-NH2): the MED in [1] and in data set [2] was 100 µg/mL throughout.

For the origin of these results see ChEMBL document CHEMBL3272113, “Inhibitors of the luteinizing hormone-releasing hormone based upon modifications in the 2, 3, and 6 positions” (J Med Chem, 1976).
